The test system of experiment [1] is sciatic nerve. Description: Counts of myelinated axons 5.0 mm distal to repair by light microscopy. The conditions noted are these: treated nerves vs. control nerve. The class given is in vivo, rat. How it is done: (§1) lwenty raty art anenthetizve with sel rompun (0.5 cc total volume). The right sciatic nerve is exposed and severed with microneuroscissors, and subsequently repaired microsurgically with 6-8 circumferential microsutures using 10-0 nylon. Immediately following surgery the treated animals receive 12 mg/kg Ac leupeptin in 5% DMSO (dimethylsulphoxide) as a bath on their sciatic nerve, 0.25 cc. total volume. Then the treated animals are injected intramuscularly in right hindlimb with 0.25 cc of a solution containing 12 mg/kg Ac leupeptin in 5% DMSO. Control animals receive the same surgical treatment, but the bath and intramuscular injection consist only of the solvent and 5% DMSO.
(§2) Thereafter, treated animals are injected twice weekly in the operated hindlimb with 12 mg/kg Ac leupeptin in 5% DMSO (0.25 cc total volume) for periods of 1 week, 1 month, two months, three months - and six months. Control animals are injected with 0.25 cc of 5% DMSO twice weekly in the operated hindlimb for the same time period.
(§3) Two treated and two control animals are assigned to each of the stated time periods.
(§4) A ten mm. portion of the repaired sciatic nerve is excised from each animal. This is fixed in 3.0% glutaraldehyde in 0.1 M sodium cacodylate, pH 7.3, overnight for electron microscopy. After post-fixation in 1.0% osmium tetroxide, ethanol dehydration and embedding in Polybed 812, both thick (1 micron) and thin (500 A°) transverse sections are cut on a ultramicrotome. Portions of the excised muscles receive similar preparation for electron microscopy.
(§5) Thick sections of the sciatic nerve are placed on microscope slots stained with toluidine blue and photographed at a constant magnification in the light microscope. Thin sections of both nerve and muscles are placed on 300 mesh copper grid calm, stained with uranyl acetate and lead citrate and photographed using a Hitachi HU-12 electron microscope.

Experiment [2] relates to chicken and rat skeletal and fetal heart preparations. The conditions noted are these: cited from earlier work.
In the next experiment the test system is cathespin L. The following applies: in muscle, squid axoplasm and rat sciatic nerve; cited from earlier work.
Experiment [3] has as its system neurofiber regrowth. Briefly: Effective dose based upon laboratory tests. The class given is in vivo, mammals. The conditions noted are these: of mammalian weight, single or divided doses. The text has this: The exact dose to be administered is dependent upon the age, weight and particular conditions of the individual involved.
Another experiment relates to thrombokinase. The following applies: cited from earlier work.
In experiment [4] the test system is sciatic nerve. Description: Counts of myelinated axons 5.0 mm proximal to repair by light microscopy. The class given is in vivo, rat. The following applies: all time periods, treated nerves compared to control. How it is done:
as §1, §2, §3, §4, §5

In the next experiment the target is plasmin (Homo sapiens, UniProt P00747). The conditions noted are these: cited from earlier work.
Experiment [5] has as its system sciatic nerve. Description: Counts of myelinated and unmyelinated axons 5.0 mm distal to repair by electron microscopy. The class given is in vivo, rat. The conditions noted are these: ultrastructural data, up to and including 6 months of treatment. How it is done: as §1, §2, §3, §4, §5
The next experiment has as its system kaleikrein. The following applies: cited from earlier work.
Experiment [6] deals with neurofiber regrowth. Description: Neurofiber regrowth after microsurgical neurorrhaphy (summary of tables I-V). The class given is in vivo, mammals. How it is done: as §1, §2, §3
All animals are sacrified by an overdose of pentobarbital, 1.0 cc total volume. […] Myofiber diameters are determined by photographing hematoxylin and eosin sections at a constant magnification in the light microscope. […]

Experiment [7] relates to chicken pectoralis muscle. The conditions noted are these: in vivo; cited from earlier work.
Experiment [8] deals with calcium activated neutral protease. The following applies: in muscle, squid axoplasm and rat sciatic nerve; cited from earlier work.
A further experiment deals with T1, papain (Carica papaya, UniProt P00784).
T1 sequence (P00784 134-345): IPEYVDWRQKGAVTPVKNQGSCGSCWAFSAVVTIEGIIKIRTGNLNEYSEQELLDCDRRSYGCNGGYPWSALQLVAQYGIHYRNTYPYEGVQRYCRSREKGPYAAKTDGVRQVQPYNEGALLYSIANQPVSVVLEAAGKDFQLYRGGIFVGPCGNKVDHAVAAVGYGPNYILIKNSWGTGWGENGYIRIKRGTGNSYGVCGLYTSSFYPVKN
The following applies: cited from earlier work.

The next experiment deals with cathespin B. The following applies: in muscle, squid axoplasm and rat sciatic nerve; cited from earlier work.

Each structure is given as a SMILES string.

Sequence of plasmin (P00747 97-810, species assumed): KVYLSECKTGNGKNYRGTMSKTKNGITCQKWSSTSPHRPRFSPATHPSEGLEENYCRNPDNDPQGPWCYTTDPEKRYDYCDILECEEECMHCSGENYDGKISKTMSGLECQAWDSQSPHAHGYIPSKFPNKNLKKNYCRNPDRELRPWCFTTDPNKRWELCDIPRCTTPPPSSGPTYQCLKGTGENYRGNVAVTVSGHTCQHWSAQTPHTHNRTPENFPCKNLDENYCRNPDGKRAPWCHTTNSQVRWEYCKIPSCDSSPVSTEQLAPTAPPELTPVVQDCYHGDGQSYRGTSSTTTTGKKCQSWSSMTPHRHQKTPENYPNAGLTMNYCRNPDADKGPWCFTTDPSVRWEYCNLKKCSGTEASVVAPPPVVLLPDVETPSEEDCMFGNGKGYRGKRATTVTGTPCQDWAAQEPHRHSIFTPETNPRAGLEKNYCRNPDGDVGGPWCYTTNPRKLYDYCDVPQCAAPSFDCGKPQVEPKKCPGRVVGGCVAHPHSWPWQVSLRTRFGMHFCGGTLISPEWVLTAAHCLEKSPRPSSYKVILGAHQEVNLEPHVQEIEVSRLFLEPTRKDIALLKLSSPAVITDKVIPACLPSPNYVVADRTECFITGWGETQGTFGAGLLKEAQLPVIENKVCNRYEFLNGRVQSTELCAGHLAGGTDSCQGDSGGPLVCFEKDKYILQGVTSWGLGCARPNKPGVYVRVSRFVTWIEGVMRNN

As a reminder, the ED50 is the midpoint of the dose-response relation. As for `CC(=O)N[C@@H](CC(C)C)C(=O)N[C@@H](CC(C)C)C(=O)N[C@H](C=O)CCCNC(=N)N` [leupeptin], the “Wallerian degeneration distal to repair” value in the experiment on sciatic nerve [1] was “do not undergo as severe a form of Wallerian degeneration as the control nerve”. In experiment [2], the protein degradation entry is recorded as “decreased protein degradation” and the protein synthesis result is reported as “no effect on protein synthesis”. Also, the “inhibition of cathespin L” value in the experiment with cathespin L was “inhibited”. Further, the ED50 in the experiment with neurofiber regrowth [3] lay within 8 to 75 mg/kg. Further, in the experiment with thrombokinase, the inhibition of thrombokinase result is listed as “effective inhibitor”. Moreover, the “number of myelinated axons proximal to repair” value with sciatic nerve [4] is “significantly higher number of myelinated axons when compared to control”. In addition, the inhibition of plasmin result at plasmin is “effective inhibitor”. Further, the “numbers of both myelinated and unmyelinated axons distal to the repair site” value with sciatic nerve [5] was “increased numbers of both myelinated and unmyelinated axons”. For the same compound, the inhibition of kaleikrein entry in the experiment with kaleikrein is “effective inhibitor”. Further, the neurofiber regrowth entry in the experiment on neurofiber regrowth [6] was “significantly enhances neurofiber regrowth”. Also, the denervation induced atrophy entry in experiment [7] is recorded as “successfully used in vivo as an inhibitor of denervation induced atrophy”. Also, the “inhibition of calcium activated neutral protease” value in experiment [8] is on record as “inhibited”. Moreover, the inhibition of papain entry at papain is reported as “effective inhibitor”. Moreover, the “inhibition of cathespin B” value with cathespin B is listed as “inhibited”.

(Values after patent EP0100673A2, “A method of enhancing neurofiber regrowth” (THE RESEARCH FOUNDATION OF STATE UNIVERSITY OF NEW YORK, priority 1982, dated 1984).)
